Experiment: RP, Waters ACQUITY UPLC BEH C18, 100 × 2.1 mm, 1.7 µm, 0.3 mL/min, estimated dead time 0.73 min; A: water + 0.1% formic acid, pH 3; B: methanol + 0.1% formic acid, pH 3; gradient (min/%B) 0/10 14/90 16/90 18/10
Settings: stereoisomer not certain

Compound | LC retention time
CON=C(Cc1cccnc1)c1ccc(Cl)cc1Cl (single isomer, unassigned; isomer 1) [Pyrifenox ISOMER 1] | 10.2 min
CC12C=CC(=O)C=C1CCC1C2CCC2(C)C(=O)CCC12 (stereo not drawn) [1.4-Androstadiene-3.17-dione (Boldione)] | 9.82 min
Nc1ccccc1O [2-Aminophenol] | 1.44 min
CCNc1nc(NCC)[nH]c(=O)n1 [2-hydroxysimazine] | 3.33 min
Nc1ccc(Cl)c(Cl)c1 [3.4-dichloroaniline] | 7.98 min
CC(=O)Nc1c(C)n(C)n(-c2ccccc2)c1=O [4-Acetylamino-Antipyrine] | 3.87 min
Cc1c(N)c(=O)n(-c2ccccc2)n1C [4-amino-antipyrine] | 2.92 min
Cc1c(NC=O)c(=O)n(-c2ccccc2)n1C [4-formylamino-Antipyrine] | 3.78 min
CC1CC2C(C(O)CC3(C)C2CCC3(O)C(=O)CO)C2(C)C=CC(=O)C=C12 (stereo not drawn) [6a-Methylprednisolone] | 9.42 min
CCC(C)C1OC2(C=CC1C)CC1CC(CC=C(C)C(OC3CC(OC)C(OC4CC(OC)C(O)C(C)O4)C(C)O3)C(C)C=CC=C3COC4C(O)C(C)=CC(C(=O)O1)C34O)O2 (stereo not drawn) [Abamectin B1a] | 13.5 min
O=C(O)COC(=O)Cc1ccccc1Nc1c(Cl)cccc1Cl [Aceclofenac] | 10.3 min
COP(=O)(NC(C)=O)SC (stereo not drawn) [Acephate] | 1.45 min
CC(=O)c1ccc2c(c1)N(CCCN(C)C)c1ccccc1S2 [Acepromazine] | 8.97 min
CC(=O)Nc1ccc(O)cc1 [Acetaminophen] | 2.4 min
CC(=NC#N)N(C)Cc1ccc(Cl)nc1 [Acetamiprid] | 4.99 min
CCOCN(C(=O)CCl)c1c(C)cccc1CC [Acetochlor] | 11.1 min
COc1cc2c(c3oc(=O)c4c(c13)CCC4=O)C1C=COC1O2 (stereo not drawn) [Aflatoxin B1] | 7.97 min
COc1cc2c(c3c1C1CCC(=O)C1C(=O)O3)C1CCOC1O2 (stereo not drawn) [Aflatoxin B2] | 7.55 min
COc1cc2c(c3oc(=O)c4c(c13)CCOC4=O)C1C=COC1O2 (stereo not drawn) [Aflatoxin G1] | 7.15 min
COc1cc2c(c3oc(=O)c4c(c13)CCOC4=O)C1CCOC1O2 (stereo not drawn) [Aflatoxin G2] | 6.71 min
COc1cc2c(c3oc(=O)c4c(c13)CCC4=O)C1(O)C=COC1O2 (stereo not drawn) [Aflatoxin M1] | 7.15 min

Compound | LC retention time
CCc1cccc(CC)c1N(COC)C(=O)CCl [Alachlor] | 11.7 min
CCOC(=O)CCN(Cc1ccccc1)SN(C)C(=O)ON=C(C)SC [Alanycarb] | 11.6 min
CCCS(=O)(=O)c1ccc2nc(NC(=O)OC)[nH]c2c1 [Albendazole sulfone] | 6.16 min
CNC(=O)ON=CC(C)(C)S(C)(=O)=O [Aldicarb sulfone] | 4.8 min
CNC(=O)ON=CC(C)(C)S(C)=O (stereo not drawn) [Aldicarb sulfoxide] | 2.54 min
CNC(=O)ON=CC(C)(C)SC [Aldicarb] | 6.2 min
C=CCC1=C(C)C(OC(=O)C2C(C=C(C)C)C2(C)C)CC1=O (stereo not drawn) [Allethrin] | 13.1 min
CCNc1nc(NC(C)C)nc(SC)n1 [Ametryn] | 9.9 min
COc1cc(OC)nc(NC(=O)NS(=O)(=O)N(C)S(C)(=O)=O)n1 [Amidosulfuron] | 4.59 min
Cc1ccc(N=CN(C)C=Nc2ccc(C)cc2C)c(C)c1 [Amitraz] | 13.9 min
CC1(C)SC2C(NC(=O)C(N)c3ccc(O)cc3)C(=O)N2C1C(=O)O (stereo not drawn) [Amoxicillin] | 4.61 min
CC(N)Cc1ccccc1 (stereo not drawn) [Amphetamine] | 3.59 min
CC1(C)SC2C(NC(=O)C(N)c3ccccc3)C(=O)N2C1C(=O)O (stereo not drawn) [Ampicillin] | 4.95 min
COc1ccc(C(O)(c2cncnc2)C2CC2)cc1 (stereo not drawn) [Ancymidol] | 7.72 min
CC12CCC(O)CC1=CCC1C2CCC2(C)C(O)CCC12 (stereo not drawn) [Androstenediol (AED)] | 12.9 min
COP(=S)(OC)SCC(=O)N(c1ccc(Cl)cc1)C(C)C [Anilofos] | 11.7 min
CC(C)NCC(O)COc1ccc(CC(N)=O)cc1 (stereo not drawn) [Atenolol] | 8.74 min
CC(C)c1c(C(=O)Nc2ccccc2)c(-c2ccccc2)c(-c2ccc(F)cc2)n1CCC(O)CC(O)CC(=O)O (stereo not drawn) [Atorvastatin] | 12 min
CCNc1nc(Cl)nc(NC(C)C)n1 [Atrazine] | 9.34 min
Clc1ccc(C2(Cn3cncn3)OCCO2)c(Cl)c1 [Azaconazole] | 9.01 min
COP(=O)(OC)SCn1c(=O)oc2cc(Cl)cnc21 [Azamethiphos] | 7.22 min

Compound | LC retention time
OC(CCCN1CCN(c2ccccn2)CC1)c1ccc(F)cc1 (stereo not drawn) [Azaperol] | 4.96 min
O=C(CCCN1CCN(c2ccccn2)CC1)c1ccc(F)cc1 [Azaperone] | 5.63 min
CCOP(=S)(OCC)SCn1nnc2ccccc2c1=O [Azinphos-ethyl] | 10.8 min
COP(=S)(OC)SCn1nnc2ccccc2c1=O [Azinphos-methyl] | 10.1 min
CCC1OC(=O)C(C)C(OC2CC(C)(OC)C(O)C(C)O2)C(C)C(OC2OC(C)CC(N(C)C)C2O)C(C)(O)CC(C)CN(C)C(C)C(O)C1(C)O (stereo not drawn) [Azithromycin] | 6.2 min
COC=C(C(=O)OC)c1ccccc1Oc1cc(Oc2ccccc2C#N)ncn1 [Azoxystrobin] | 10.6 min
CCC(=O)OCC(=O)C1(OC(=O)CC)C(C)CC2C3CCC4=CC(=O)C=CC4(C)C3(Cl)C(O)CC21C (stereo not drawn) [Beclometasone dipropionate] | 12.3 min
COC(=O)C(C)N(C(=O)Cc1ccccc1)c1c(C)cccc1C (stereo not drawn) [Benalaxyl] | 11.7 min
O=C(O)Cn1c(=O)sc2cccc(Cl)c21 [Benazolin] | 4.59 min
CNC(=O)Oc1cccc2c1OC(C)(C)O2 [Bendiocarb] | 7.43 min
CCCCNC(=O)n1c(NC(=O)OC)nc2ccccc21 [Benomyl] | 11.6 min
CC1COc2ccccc2N1C(=O)C(Cl)Cl (stereo not drawn) [Benoxacor] | 9.47 min
COC(=O)c1ccccc1CS(=O)(=O)NC(=O)Nc1nc(OC)cc(OC)n1 [Bensulfuron methyl] | 9.29 min
CC(C)N1C(=O)c2ccccc2NS1(=O)=O [Bentazon] | 3.68 min
CCON=C(OC(=O)c1ccccc1)c1c(OC)ccc(Cl)c1OC [Benzoximate] | 12.1 min
CCCCOC(=O)c1ccccc1C(=O)OCc1ccccc1 [Benzyl butyl phthalate] | 12.4 min
COc1ccc(-c2ccccc2)cc1NNC(=O)OC(C)C [Bifenazate] | 10.8 min
COC(=O)c1cc(Oc2ccc(Cl)cc2Cl)ccc1[N+](=O)[O-] [Bifenox] | 12.2 min
CC(C)=CC1C(C(=O)OCc2coc(Cc3ccccc3)c2)C1(C)C (stereo not drawn) [Bioresmethrin] | 14.2 min
CCCCC(CC)COC(=O)CCCCC(=O)OCC(CC)CCCC (stereo not drawn) [Bis-(2-ethylhexyl) adipate] | 15.3 min
CCCCC(CC)COC(=O)c1ccccc1C(=O)OCC(CC)CCCC (stereo not drawn) [Bis-(2-ethylhexyl) phthalate] | 15.3 min
